{
  "source": "patent EP0792649A1",
  "about": "“Treatment of sleep disorders” (ELI LILLY AND COMPANY, priority 1996, dated 1997)",
  "type_in_all_cases": "in vivo, Sprague-Dawley rats",
  "key": {"5-HT": {"tested_on": "5-HT", "experiment": "Microdialysis assays of monoamines: 5-HT level in hypothalamus dialysate of conscious rats", "conditions": "for 5-HT level measured in the dialysate, % of baseline: Test 1, single animal; for 5-HT, percent of baseline: Test 3, average of three animals", "method": "(§1) The tests were carried out as follows.\n(§2) Sprague-Dawley rats (Harlan or Charles River) weighing 270-300 grams were surgically implanted with microdialysis probes under chloral hydrate/pentobarbital anesthesia (170 and 36 mg/kg i.p. in 30% propylene glycol, 14% ethanol) (Perry and Fuller, Effect of fluoxetine on serotonin and dopamine concentration in rat hypothalamus after administration of fluoxetine plus L-5-hydroxytryptophan, Life Sci., 50, 1683-90 (1992)). A David Kopf stereotaxic instrument was used to implant the probe unilaterally in the hypothalamus at coordinates rostral -1.5 mm, lateral -1.3 mm, and ventral -9.0 mm (Paxinos and Watson, 1986). After a 48 hour recovery period, rats were placed in a large plastic bowl with a mounted liquid swivel system (CMA/120 system for freely moving animals, Bioanalytical Systems, West Lafayette, IN). Filtered artificial cerebrospinal fluid (CSF) (150 mM NaCl, 3.0 mM KCl, 1.7 mM CaCl2, and 0.9 mM MgCl2) was perfused through the probe at a rate of 1.0 µl/min. The output dialysate line was fitted to a tenport HPLC valve with a 20 µl loop. At the end of each 30 minute sampling period, dialysate collected in the loop was injected on an analytical column (Spherisorb 3 µ ODS2, 2X150 mm, Keystone Scientific).\n(§3) The method used to measure monoamines was as described by Perry and Fuller (1993). Briefly, dialysate collected in the 20 µl loop was assayed for 5-HT, NE and DA. The 20 µl injection went onto the column with a mobile phase which resolved NE, DA, and 5-HT: 75 mM potassium acetate, 0.5 mM ethylenediaminetetraacetic acid, 1.4 mM sodium octanesulfonic acid and 8% methanol, pH 4.9. The mobile phase for the amine column was delivered with a flow programmable pump at an initial flow rate of 0.2 ml/min increasing to 0.3 ml/min at 5 min then decreasing back to 0.2 ml/min at 26 min with a total run time of 30 min. Flow programming was used to elute the 5-HT within a 25 min time period. The electrochemical detector (EG&G, Model 400) for the amine column was set at a potential of 400 mV and a sensitivity of 0.2 nA/V. The data was collected and analyzed with a Hewlett-Packard HP1000 chromatography system which measured peak heights and calculated sample concentrations. Basal levels were measured for at least 90 minutes prior to drug administration.\n(§4) Extracellular levels of the amines in microdialysates were calculated by comparing peak heights with those of 50 pmole standards. The mean value of the four samples immediately preceding drug administration served as the basal level for each experiment and data was converted to percent of basal. Paired t-tests were used to compare the mean of the basal values from the time point immediately preceding drug administration to those of each time point thereafter.\n(§5) The rats were prepared as described above, and the indole was administered subcutaneously at 3 mg/kg 100 minutes after the start of the experiment. Fluoxetine was administered intraperitoneally at 10 mg/kg, together with a second dose of the indole at 3 mg/kg, 210 minutes after the start of the experiment. Each data point reported here represents a single animal.\n(§6) The results are shown below as percent of baseline of the three monoamines, at various times after the start of the experiment. Each data point represents the average of three or more animals.\n(§7) This test was carried out as described in Test 1, using 4-(2-hydroxy-3-cyclohexylaminopropoxy)indole, maleate, at 3 mg/kg administered at 120 minutes, and (+)-duloxetine, hydrochloride, at 4 mg/kg administered with a second dose of the indole at 3 mg/kg, at 270 minutes. Results are reported as in Test 2 above. The 5-HT results are the average of three animals, and the other results are the average of four animals."}, "DA": {"tested_on": "DA", "experiment": "Microdialysis assays of monoamines: DA level in hypothalamus dialysate of conscious rats", "method": "as §1, §2, §3, §4, §5, §6, §7"}, "NE": {"tested_on": "NE", "experiment": "Microdialysis assays of monoamines: NE level in hypothalamus dialysate of conscious rats", "method": "as §1, §2, §3, §4, §5, §6, §7"}, "[1]": {"conditions": "Test 3, 120 min (time of first indole dose, 3 mg/kg), average of four animals"}, "[2]": {"conditions": "Test 3, 150 min, the indole 3 mg/kg at 120 min, average of four animals"}, "[3]": {"conditions": "Test 3, 180 min, the indole 3 mg/kg at 120 min, average of four animals"}, "[4]": {"conditions": "Test 3, 210 min, the indole 3 mg/kg at 120 min, average of four animals"}, "[5]": {"conditions": "Test 3, 240 min, the indole 3 mg/kg at 120 min, average of four animals"}, "[6]": {"conditions": "Test 3, 270 min, the indole 3 mg/kg at 120 min, average of four animals"}, "[7]": {"conditions": "Test 2, 120 min (time of first (-)-pindolol dose, 5 mg/kg), average of three or more animals"}, "[8]": {"conditions": "Test 2, 150 min, (-)-pindolol 5 mg/kg at 120 min, average of three or more animals"}, "[9]": {"conditions": "Test 2, 180 min, (-)-pindolol 5 mg/kg at 120 min, average of three or more animals"}, "[10]": {"conditions": "Test 2, 210 min, (-)-pindolol 5 mg/kg at 120 min, average of three or more animals"}},
  "data": [
    {"smiles": "O=C(O)/C=C\\C(=O)O.OC(CNC1CCCCC1)COc1cccc2[nH]ccc12", "note": "(centres unmarked) [4-(2-hydroxy-3-cyclohexylaminopropoxy)indole, maleate]", "values": [
      {"measurement": "5-HT level measured in the dialysate, % of baseline", "setting": "5-HT; 210 min after start, the indole 3 mg/kg s.c. at 100 min", "value": "about 80%"},
      {"measurement": "5-HT level measured in the dialysate, % of baseline", "setting": "5-HT; lowest level after the indole 3 mg/kg s.c. at 100 min", "value": "about 50%"},
      {"measurement": "5-HT, percent of baseline", "setting": "5-HT; 120 min (time of first indole dose, 3 mg/kg)", "value": 90, "unit": "%"},
      {"measurement": "5-HT, percent of baseline", "setting": "5-HT; 150 min, the indole 3 mg/kg at 120 min", "value": 130, "unit": "%"},
      {"measurement": "5-HT, percent of baseline", "setting": "5-HT; 180 min, the indole 3 mg/kg at 120 min", "value": 130, "unit": "%"},
      {"measurement": "5-HT, percent of baseline", "setting": "5-HT; 210 min, the indole 3 mg/kg at 120 min", "value": 80, "unit": "%"},
      {"measurement": "5-HT, percent of baseline", "setting": "5-HT; 240 min, the indole 3 mg/kg at 120 min", "value": 90, "unit": "%"},
      {"measurement": "5-HT, percent of baseline", "setting": "5-HT; 270 min, the indole 3 mg/kg at 120 min", "value": 80, "unit": "%"},
      {"measurement": "DA level, % of baseline", "setting": "DA; Test 1, 120 min, the indole 3 mg/kg s.c. at 100 min, single animal", "value": "about 210%"},
      {"measurement": "DA level, relative to baseline", "setting": "DA; Test 1, 210 min, the indole 3 mg/kg s.c. at 100 min, single animal", "value": "near baseline"},
      {"measurement": "DA, percent of baseline", "setting": "DA; [1]", "value": 70, "unit": "%"},
      {"measurement": "DA, percent of baseline", "setting": "DA; [2]", "value": 150, "unit": "%"},
      {"measurement": "DA, percent of baseline", "setting": "DA; [3]", "value": 130, "unit": "%"},
      {"measurement": "DA, percent of baseline", "setting": "DA; [4]", "value": 110, "unit": "%"},
      {"measurement": "DA, percent of baseline", "setting": "DA; [5]", "value": 100, "unit": "%"},
      {"measurement": "DA, percent of baseline", "setting": "DA; [6]", "value": 110, "unit": "%"},
      {"measurement": "NE level, relative to baseline", "setting": "NE; Test 1, by 210 min, the indole 3 mg/kg s.c. at 100 min, single animal", "value": "nearly to baseline"},
      {"measurement": "NE level, % of baseline", "setting": "NE; Test 1, highest level after the indole 3 mg/kg s.c. at 100 min, single animal", "value": "about 180%"},
      {"measurement": "NE, percent of baseline", "setting": "NE; [1]", "value": 100, "unit": "%"},
      {"measurement": "NE, percent of baseline", "setting": "NE; [2]", "value": 160, "unit": "%"},
      {"measurement": "NE, percent of baseline", "setting": "NE; [3]", "value": 140, "unit": "%"},
      {"measurement": "NE, percent of baseline", "setting": "NE; [4]", "value": 140, "unit": "%"},
      {"measurement": "NE, percent of baseline", "setting": "NE; [5]", "value": 130, "unit": "%"},
      {"measurement": "NE, percent of baseline", "setting": "NE; [6]", "value": 150, "unit": "%"}
    ]},
    {"smiles": "CC(C)NCC(O)COc1cccc2[nH]ccc12", "note": "(single isomer, unassigned; (-)) [(-)-pindolol, 4-(2-hydroxy-3-isopropylaminopropoxy)-indole]", "values": [
      {"measurement": "DA, percent of baseline", "setting": "DA; [7]", "value": 90, "unit": "%"},
      {"measurement": "DA, percent of baseline", "setting": "DA; [8]", "value": 90, "unit": "%"},
      {"measurement": "DA, percent of baseline", "setting": "DA; [9]", "value": 70, "unit": "%"},
      {"measurement": "DA, percent of baseline", "setting": "DA; [10]", "value": 100, "unit": "%"},
      {"measurement": "NE, percent of baseline", "setting": "NE; [7]", "value": 90, "unit": "%"},
      {"measurement": "NE, percent of baseline", "setting": "NE; [8]", "value": 100, "unit": "%"},
      {"measurement": "NE, percent of baseline", "setting": "NE; [9]", "value": 120, "unit": "%"},
      {"measurement": "NE, percent of baseline", "setting": "NE; [10]", "value": 110, "unit": "%"}
    ]}
  ]
}
